Test results published in PubChem BioAssay AID1963451 (Molecular Pharmacology Branch, DTP, NCI, 2024).

Test system: 521955-158-R6-J3-PDC complex spheroid growth, % test/control
Assay: Anticancer human tumor 521955-158-R6-J3-PDC patient-derived pancreatic carcinoma cell line growth inhibition [Asc]
Conditions: for IC50: curve of first compound; for viability, T/C: stronger effect = lower value
Summary of the method: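 Concentration series start at each agent's clinical Cmax, or at 10 microM when none is established, and drop in half-log steps; agents are applied alone or together to complex spheroids built with HUVEC and hMSC.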

[1] = second compound 0.0316 µM, first compound 0.00316 µM
[2] = second compound 0.0316 µM, first compound 0.01 µM
[3] = second compound 0.0316 µM, first compound 0.0316 µM
[4] = second compound 0.0316 µM, first compound 0.1 µM
[5] = second compound 0.0316 µM, first compound 0.316 µM
[6] = second compound 0.0316 µM, first compound 1 µM
[7] = second compound 0.1 µM, first compound 0.00316 µM
[8] = second compound 0.1 µM, first compound 0.01 µM
[9] = second compound 0.1 µM, first compound 0.0316 µM
[10] = second compound 0.1 µM, first compound 0.1 µM
[11] = second compound 0.1 µM, first compound 0.316 µM
[12] = second compound 0.1 µM, first compound 1 µM
[13] = second compound 0.316 µM, first compound 0.00316 µM
[14] = second compound 0.316 µM, first compound 0.01 µM
[15] = second compound 0.316 µM, first compound 0.0316 µM
[16] = second compound 0.316 µM, first compound 0.1 µM
[17] = second compound 0.316 µM, first compound 0.316 µM
[18] = second compound 0.316 µM, first compound 1 µM
[19] = second compound 1 µM, first compound 0.00316 µM
[20] = second compound 1 µM, first compound 0.01 µM
[21] = second compound 1 µM, first compound 0.0316 µM
[22] = second compound 1 µM, first compound 0.1 µM
[23] = second compound 1 µM, first compound 0.316 µM
[24] = second compound 1 µM, first compound 1 µM
[25] = second compound 3.16 µM, first compound 0.00316 µM
[26] = second compound 3.16 µM, first compound 0.01 µM
[27] = second compound 3.16 µM, first compound 0.0316 µM
[28] = second compound 3.16 µM, first compound 0.1 µM
[29] = second compound 3.16 µM, first compound 0.316 µM
[30] = second compound 3.16 µM, first compound 1 µM
[31] = second compound 10 µM, first compound 0.00316 µM
[32] = second compound 10 µM, first compound 0.01 µM
[33] = second compound 10 µM, first compound 0.0316 µM
[34] = second compound 10 µM, first compound 0.1 µM
[35] = second compound 10 µM, first compound 0.316 µM
[36] = second compound 10 µM, first compound 1 µM
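Also: spheroids exposed to compounds for 7 days.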
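For viability, T/C in this document: 100% = DMSO vehicle control wells.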

## CNC(C)C(=O)NC1CN(S(=O)(=O)c2cccc(S(=O)(=O)N3CCC4CCC(C(=O)NC(c5ccccc5)c5ccccc5)N4C(=O)C(NC(=O)C(C)NC)C3)c2)CCC2CCC(C(=O)NC(c3ccccc3)c3ccccc3)N2C1=O (stereo unspecified) + Cc1c(S(C)(=O)=O)c(-c2cc(F)cc(N3CCN(c4ccc(NS(=O)(=O)c5ccc(NC(CCN6CCC(C(=O)OCCCP(=O)(O)O)CC6)CSc6ccccc6)c(S(=O)(=O)C(F)(F)F)c5)cc4)CC3)c2)c(-c2ccc(Cl)cc2)n1C(C)C
Second compound 0.0316 µM
  IC50: > 1000 nM
Second compound 0.1 µM
  IC50: > 1000 nM
Second compound 0.316 µM
  IC50: 5.02 nM
Second compound 1 µM
  IC50: < 3.16 nM
Second compound 3.16 µM
  IC50: < 3.16 nM
Second compound 10 µM
  IC50: < 3.16 nM
[1]
  viability, T/C: 101%
[2]
  viability, T/C: 90.1%
[3]
  viability, T/C: 80.1%
[4]
  viability, T/C: 72.5%
[5]
  viability, T/C: 67.3%
[6]
  viability, T/C: 60.4%
[7]
  viability, T/C: 93.4%
[8]
  viability, T/C: 64.7%
[9]
  viability, T/C: 57.1%
[10]
  viability, T/C: 56.4%
[11]
  viability, T/C: 51.4%
[12]
  viability, T/C: 55.4%
[13]
  viability, T/C: 57.3%
[14]
  viability, T/C: 38.4%
[15]
  viability, T/C: 42.8%
[16]
  viability, T/C: 39.4%
[17]
  viability, T/C: 35.7%
[18]
  viability, T/C: 35.5%
[19]
  viability, T/C: 31.6%
[20]
  viability, T/C: 23.8%
[21]
  viability, T/C: 29.6%
[22]
  viability, T/C: 19.9%
[23]
  viability, T/C: 25.4%
[24]
  viability, T/C: 21.1%
[25]
  viability, T/C: 14.6%
[26]
  viability, T/C: 13%
[27]
  viability, T/C: 16.9%
[28]
  viability, T/C: 14.1%
[29]
  viability, T/C: 12.3%
[30]
  viability, T/C: 13.3%
[31]
  viability, T/C: 10.6%
[32]
  viability, T/C: 12%
[33]
  viability, T/C: 8.73%
[34]
  viability, T/C: 9.27%
[35]
  viability, T/C: 10.4%
[36]
  viability, T/C: 6.75%

## O=C(c1ccc(F)c(F)c1Nc1ccc(I)cc1F)N1CC(O)([C@@H]2CCCCN2)C1 + Cc1c(S(C)(=O)=O)c(-c2cc(F)cc(N3CCN(c4ccc(NS(=O)(=O)c5ccc(NC(CCN6CCC(C(=O)OCCCP(=O)(O)O)CC6)CSc6ccccc6)c(S(=O)(=O)C(F)(F)F)c5)cc4)CC3)c2)c(-c2ccc(Cl)cc2)n1C(C)C
Second compound 0.0316 µM
  IC50: 257 nM
Second compound 0.1 µM
  IC50: 166 nM
Second compound 0.316 µM
  IC50: < 3.16 nM
Second compound 1 µM
  IC50: < 3.16 nM
Second compound 3.16 µM
  IC50: < 3.16 nM
Second compound 10 µM
  IC50: < 3.16 nM
[1]
  viability, T/C: 78.6%
[2]
  viability, T/C: 83.5%
[3]
  viability, T/C: 97.3%
[4]
  viability, T/C: 85%
[5]
  viability, T/C: 42.2%
[6]
  viability, T/C: 26.7%
[7]
  viability, T/C: 79.8%
[8]
  viability, T/C: 69.1%
[9]
  viability, T/C: 84.2%
[10]
  viability, T/C: 59.5%
[11]
  viability, T/C: 35.3%
[12]
  viability, T/C: 17.9%
[13]
  viability, T/C: 47.8%
[14]
  viability, T/C: 46.7%
[15]
  viability, T/C: 43.1%
[16]
  viability, T/C: 36.8%
[17]
  viability, T/C: 20.2%
[18]
  viability, T/C: 5.24%
[19]
  viability, T/C: 35.3%
[20]
  viability, T/C: 39.4%
[21]
  viability, T/C: 29.7%
[22]
  viability, T/C: 20.5%
[23]
  viability, T/C: 6.12%
[24]
  viability, T/C: 1.37%
[25]
  viability, T/C: 19.1%
[26]
  viability, T/C: 25%
[27]
  viability, T/C: 19.6%
[28]
  viability, T/C: 6.55%
[29]
  viability, T/C: 1.36%
[30]
  viability, T/C: 0.4%
[31]
  viability, T/C: 14.6%
[32]
  viability, T/C: 11.5%
[33]
  viability, T/C: 7.74%
[34]
  viability, T/C: 3.48%
[35]
  viability, T/C: 1.23%
[36]
  viability, T/C: 2.45%

## COc1c(OCCCN2CCOCC2)ccc2c3n(c(=NC(=O)c4cnc(N)nc4)nc12)CCN3 + CCN1C(C(=O)NC23CCC(C(=O)O)(CC2)CC3)C(c2cccc(Cl)c2F)C2(C(=O)Nc3cc(Cl)ccc32)C12CCCCC2
Second compound 0.00949 µM
  IC50: 211 nM
Second compound 0.03 µM
  IC50: 365 nM
Second compound 0.0949 µM
  IC50: 469 nM
Second compound 0.3 µM
  IC50: 321 nM
Second compound 0.949 µM
  IC50: 309 nM
Second compound 3 µM
  IC50: 290 nM
Second compound 0.00949 µM, first compound 0.00316 µM
  viability, T/C: 102%
Second compound 0.00949 µM, first compound 0.01 µM
  viability, T/C: 79.9%
Second compound 0.00949 µM, first compound 0.0316 µM
  viability, T/C: 62.5%
Second compound 0.00949 µM, first compound 0.1 µM
  viability, T/C: 65.2%
Second compound 0.00949 µM, first compound 0.316 µM
  viability, T/C: 51.9%
Second compound 0.00949 µM, first compound 1 µM
  viability, T/C: 28.3%
Second compound 0.03 µM, first compound 0.00316 µM
  viability, T/C: 93.4%
Second compound 0.03 µM, first compound 0.01 µM
  viability, T/C: 77.1%
Second compound 0.03 µM, first compound 0.0316 µM
  viability, T/C: 73.2%
Second compound 0.03 µM, first compound 0.1 µM
  viability, T/C: 66.2%
Second compound 0.03 µM, first compound 0.316 µM
  viability, T/C: 52.6%
Second compound 0.03 µM, first compound 1 µM
  viability, T/C: 37.4%
Second compound 0.0949 µM, first compound 0.00316 µM
  viability, T/C: 79.1%
Second compound 0.0949 µM, first compound 0.01 µM
  viability, T/C: 77.9%
Second compound 0.0949 µM, first compound 0.0316 µM
  viability, T/C: 59.5%
Second compound 0.0949 µM, first compound 0.1 µM
  viability, T/C: 77.7%
Second compound 0.0949 µM, first compound 0.316 µM
  viability, T/C: 53.9%
Second compound 0.0949 µM, first compound 1 µM
  viability, T/C: 37%
Second compound 0.3 µM, first compound 0.00316 µM
  viability, T/C: 95.5%
Second compound 0.3 µM, first compound 0.01 µM
  viability, T/C: 83.3%
Second compound 0.3 µM, first compound 0.0316 µM
  viability, T/C: 70.1%
Second compound 0.3 µM, first compound 0.1 µM
  viability, T/C: 65.5%
Second compound 0.3 µM, first compound 0.316 µM
  viability, T/C: 56%
Second compound 0.3 µM, first compound 1 µM
  viability, T/C: 32.1%
Second compound 0.949 µM, first compound 0.00316 µM
  viability, T/C: 84%
Second compound 0.949 µM, first compound 0.01 µM
  viability, T/C: 90.6%
Second compound 0.949 µM, first compound 0.0316 µM
  viability, T/C: 80.5%
Second compound 0.949 µM, first compound 0.1 µM
  viability, T/C: 67.6%
Second compound 0.949 µM, first compound 0.316 µM
  viability, T/C: 50.6%
Second compound 0.949 µM, first compound 1 µM
  viability, T/C: 32.7%
Second compound 3 µM, first compound 0.00316 µM
  viability, T/C: 82.1%
Second compound 3 µM, first compound 0.01 µM
  viability, T/C: 83.8%
Second compound 3 µM, first compound 0.0316 µM
  viability, T/C: 78.8%
Second compound 3 µM, first compound 0.1 µM
  viability, T/C: 65%
Second compound 3 µM, first compound 0.316 µM
  viability, T/C: 49.6%
Second compound 3 µM, first compound 1 µM
  viability, T/C: 28.8%
